Assay results from patent US5021427A, “Novel pyrrolizidine alkaloid” (The Board of Regents, The University of Texas System, priority 1988, dated 1991).
Like-named read-outs stand apart in the source and are kept apart here.

How the values were obtained:
[1] = tested on: uninfected MDCK cells; details: 50 micro g/ml, 60 min
Experimental: (§2) The cells then were incubated for 15-120 min with either [2-^3 H]mannose (20 micro Ci/ml) or [4,5-^3 H]leucine (10 micro Ci/ml) to label lipid-linked saccharides and cellular proteins, respectively. At the end of the labeling period, the medium was removed by aspiration, and the monolayers were washed 3 times with PB S. One ml of PBS was added to each well, the cells were dislodged by scraping, and were then quantitatively transferred to reaction tubes. Each well was washed with another 1 ml of PBS and this rinse was also added to the initial tube. Radioactivity incorporated into lipid-linked monosaccharides and oligosaccharides was determined after extraction with chloroform:methanol:water (1:1:1) and chloroform:methanol:water (10:10:3), respectively, as previously described (60).
(§3) Uninfected MDCK cells were grown in 6well Limbro tissue culture dishes. A
(§4) confluency, australine was added to some wells to the final concentration
(§5) listed above. After a 2 hour incubation to allow the alkaloid to take
(§6) effect, [^3 H]mannose was added to a final concentration of 20 micro
(§7) Ci/ml, and the incubations were continued. At the times shown, the medium
(§8) was removed by aspiration, and the monolayers were washed three times wit
(§9) PBS. The cells were released from the wells by scraping, placed in tubes,
(§10) then sequentially extracted with chloroform:methanol:water (1:1:1) for
(§11) lipidlinked monosaccharides, and chloroform:methanol:water (10:10:3) for
(§12) lipidlinked oligosaccharides. The total radioactivity incorporated into
(§13) the lipidlinked sugars was determined by liquid scintillation counting.

[2] = tested on: uninfected MDCK cells; experiment: incorporation of [3H]leucine into protein (protein synthesis)
Experimental: (§14) The cells then were incubated for 15-120 min with either [2-^3 H]mannose (20 micro Ci/ml) or [4,5-^3 H]leucine (10 micro Ci/ml) to label lipid-linked saccharides and cellular proteins, respectively. At the end of the labeling period, the medium was removed by aspiration, and the monolayers were washed 3 times with PB S. One ml of PBS was added to each well, the cells were dislodged by scraping, and were then quantitatively transferred to reaction tubes. Each well was washed with another 1 ml of PBS and this rinse was also added to the initial tube. […] For the incorporation of radiolabel into protein, cells were extracted with TCA at a final concentration of 20% in the presence of 500 micro g of bovine serum albumin. Following an overnight incubation at 4° C., precipitated protein was isolated by centrifugation. The precipitate was washed twice with 5% TCA, and once with absolute methanol, and then digested with Pronase as described above. Pronase-released radioactivity was measured by liquid scintillation counting.
(§15) Uninfected MDCK cells were grown in 6well Limbro tissue culture dishes.
as §4
(§16) After a 2 hours incubation to allow the alkaloid to take
At the times shown, the medium
as §8, §9
(§17) and extracted with 20% TCA as described above. Radioactivity incorporated
(§18) into total cellular protein was determined after Pronase digestion by
liquid scintillation counting.

[3] = target: T1, alpha-mannosidase (Canavalia ensiformis, UniProt C0HJB3); experiment: alpha-mannosidase inhibition; format: biochemical, jack bean
T1 construct: purchased Sigma Chemical Company

[4] = tested on: beta-glucosidase; experiment: beta-glucosidase inhibition, p-nitrophenyl-glycoside substrate; format: biochemical, almonds
[5] = target: T2, amyloglucosidase (Aspergillus niger, UniProt P69328); experiment: amyloglucosidase (alpha-glucosidase) inhibition, p-nitrophenyl-alpha-D-glucoside substrate; format: biochemical
T2 construct: purchased Sigma Chemical Company

[6] = target: glucosidase I; experiment: processing glucosidase I, release of [3H]glucose from Glc3Man9GlcNAc; format: biochemical, mung bean
[7] = target: intestinal maltase; experiment: intestinal maltase activity, maltitol as substrate; format: biochemical
Experimental: (§1) (B) Sucrase and Maltase. Intestinal sucrase and maltase activities were determined by measuring the formation of reducing sugar from sucrose and maltitol, respectively. The reaction mixture contained 7.5 micromoles sodium citrate buffer, pH 6, 9 micromoles of substrate (sucrose or maltitol), and enzyme, in a final volume of 0.3 ml. […] For both enzymes, activity was proportional with time, and amount of protein. As described above for the arylglycosidases, inhibitors were preincubated with enzyme prior to the addition of substrate.

[8] = target: Beta-Mannosidase (Aspergillus niger, UniProt Q9UUZ3); experiment: beta-mannosidase inhibition; format: biochemical
[9] = tested on: influenza virus glycoproteins in infected MDCK cells; experiment: glycoprotein processing in influenza virus-infected MDCK cells (Endo H-sensitive oligosaccharides); details: mannose-labeled glycopeptide, printed as 10 micro g/ml
[10] = tested on: glucosidase II; experiment: processing glucosidase II, release of p-nitrophenol from p-nitrophenyl-alpha-D-glucoside; format: biochemical, mung bean
[11] = tested on: alpha-galactosidase; experiment: alpha-galactosidase inhibition; format: biochemical, Aspergillus niger
[12] = tested on: human immunodeficiency virus (HIV-1); experiment: replication of HIV-1 in tissue culture cells; format: cell-based
[13] = tested on: uninfected MDCK cells; experiment: incorporation of [3H]mannose into lipid-linked saccharides
Experimental: as §2, §3, §4, §5, §6, §7, §8, §9, §10, §11, §12, §13

[14] = target: T3, intestinal sucrase (Homo sapiens, UniProt P14410); experiment: intestinal sucrase activity, sucrose as substrate; format: biochemical
T3 construct: from tissue
Experimental: as §1

[15] = tested on: uninfected MDCK cells
Experimental: as §14, §15, §4, §16
At the times shown, the medium
as §8, §9, §17, §18
liquid scintillation counting.

[16] = tested on: beta-galactosidase; experiment: beta-galactosidase inhibition; format: biochemical, bovine
[17] = tested on: influenza virus glycoproteins in infected MDCK cells; details: cited from earlier work
[18] = tested on: glycosidases; experiment: glycosidase inhibitory activity against generally available glycosidases; format: biochemical
From the text: GENERAL EX[…]. The alkaloids were monitored for purity by tlc on 0.25 mm silica gel plates developed with CHCl3 :MeOH:HN4 OH:H2 O (70:26:2:2) and detected by spraying with acetic anhydride followed by Ehrlich's reagent (21). Homogeneity was also checked by gc of the TMS derivatives, prepared by treatment with MSTFA in pyridine, on a Hewlett-Packard 5830 instrument equipped with a flame-ionization detector, on-column injector, and a 30-m×0.32-mm i.d. SE-30 fused silica column. Low resolution electron and ammonia chemical ionization mass spectra were obtained on a VG Micromass 7070 mass spectrometer; high resolution mass measurements were determined on the same instrument. Optical rotations were measured in a 1-dm cell on a Perkin-Elmer 241 automatic polarimeter. Nuclear magnetic resonance spectra were determined in D2 O on a Nicolet NTC 200FT spectrometer with software package at 200 MHz (^1 H) and at 50.3 MHz (^13 C) using 3-(trimethylsilyl)-1-propanesulfonic acid (TSP) as an internal standard. Multiplicities for ^13 C signals were determined by application of the carbon attached proton test (CAPT) sequence. Preparative centrifugal tlc was performed on a Chromatotron Model 7924 (Harrison Research, Palo Alto, Calif.). Enzyme assay methods have been previously described (67), Melting points are uncorrected.

[19] = concentrations up to 500 micro M

T2 sequence (P69328 25-640): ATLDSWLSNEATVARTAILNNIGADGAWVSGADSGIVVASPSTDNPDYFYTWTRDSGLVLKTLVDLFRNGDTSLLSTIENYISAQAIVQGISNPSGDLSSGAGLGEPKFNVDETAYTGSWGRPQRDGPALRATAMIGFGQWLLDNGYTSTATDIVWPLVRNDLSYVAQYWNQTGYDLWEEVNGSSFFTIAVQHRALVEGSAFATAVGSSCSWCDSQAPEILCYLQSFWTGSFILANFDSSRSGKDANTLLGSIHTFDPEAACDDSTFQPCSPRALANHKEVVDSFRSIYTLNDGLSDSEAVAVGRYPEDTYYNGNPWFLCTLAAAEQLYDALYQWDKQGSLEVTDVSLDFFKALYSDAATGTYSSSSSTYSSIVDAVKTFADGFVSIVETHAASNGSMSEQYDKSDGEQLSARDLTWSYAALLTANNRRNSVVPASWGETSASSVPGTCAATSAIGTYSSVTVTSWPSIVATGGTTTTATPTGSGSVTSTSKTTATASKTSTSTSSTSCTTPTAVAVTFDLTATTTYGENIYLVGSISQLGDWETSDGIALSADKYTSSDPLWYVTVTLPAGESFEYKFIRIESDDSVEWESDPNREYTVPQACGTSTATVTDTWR
T1 sequence (C0HJB3 whole entry): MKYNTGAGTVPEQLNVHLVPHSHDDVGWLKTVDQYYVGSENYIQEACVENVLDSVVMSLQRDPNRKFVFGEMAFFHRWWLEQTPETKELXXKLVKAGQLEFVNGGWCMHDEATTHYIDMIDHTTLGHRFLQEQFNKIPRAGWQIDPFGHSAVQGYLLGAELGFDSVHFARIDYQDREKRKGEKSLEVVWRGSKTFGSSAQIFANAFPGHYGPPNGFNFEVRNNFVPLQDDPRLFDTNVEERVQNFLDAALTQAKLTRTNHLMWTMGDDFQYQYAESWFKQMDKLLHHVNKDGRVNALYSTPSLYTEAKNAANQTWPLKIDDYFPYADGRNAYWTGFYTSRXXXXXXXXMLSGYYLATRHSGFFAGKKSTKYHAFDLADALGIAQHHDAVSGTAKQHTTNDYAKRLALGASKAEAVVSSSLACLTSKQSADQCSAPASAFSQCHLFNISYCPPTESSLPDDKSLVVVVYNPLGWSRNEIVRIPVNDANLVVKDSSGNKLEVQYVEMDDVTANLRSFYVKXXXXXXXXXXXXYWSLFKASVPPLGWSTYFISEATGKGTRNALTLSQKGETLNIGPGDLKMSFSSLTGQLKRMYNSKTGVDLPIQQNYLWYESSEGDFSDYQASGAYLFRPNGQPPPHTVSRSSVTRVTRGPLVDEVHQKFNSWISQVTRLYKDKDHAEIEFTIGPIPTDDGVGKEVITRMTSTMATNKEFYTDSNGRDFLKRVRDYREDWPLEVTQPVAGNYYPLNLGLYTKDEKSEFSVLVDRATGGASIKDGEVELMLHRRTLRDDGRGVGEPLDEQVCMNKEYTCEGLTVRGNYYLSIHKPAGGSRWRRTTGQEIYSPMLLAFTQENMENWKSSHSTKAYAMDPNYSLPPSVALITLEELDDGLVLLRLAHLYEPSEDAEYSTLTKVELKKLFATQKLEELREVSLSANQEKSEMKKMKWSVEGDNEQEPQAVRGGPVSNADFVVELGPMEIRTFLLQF
Sequence of Beta-Mannosidase (Q9UUZ3 22-931): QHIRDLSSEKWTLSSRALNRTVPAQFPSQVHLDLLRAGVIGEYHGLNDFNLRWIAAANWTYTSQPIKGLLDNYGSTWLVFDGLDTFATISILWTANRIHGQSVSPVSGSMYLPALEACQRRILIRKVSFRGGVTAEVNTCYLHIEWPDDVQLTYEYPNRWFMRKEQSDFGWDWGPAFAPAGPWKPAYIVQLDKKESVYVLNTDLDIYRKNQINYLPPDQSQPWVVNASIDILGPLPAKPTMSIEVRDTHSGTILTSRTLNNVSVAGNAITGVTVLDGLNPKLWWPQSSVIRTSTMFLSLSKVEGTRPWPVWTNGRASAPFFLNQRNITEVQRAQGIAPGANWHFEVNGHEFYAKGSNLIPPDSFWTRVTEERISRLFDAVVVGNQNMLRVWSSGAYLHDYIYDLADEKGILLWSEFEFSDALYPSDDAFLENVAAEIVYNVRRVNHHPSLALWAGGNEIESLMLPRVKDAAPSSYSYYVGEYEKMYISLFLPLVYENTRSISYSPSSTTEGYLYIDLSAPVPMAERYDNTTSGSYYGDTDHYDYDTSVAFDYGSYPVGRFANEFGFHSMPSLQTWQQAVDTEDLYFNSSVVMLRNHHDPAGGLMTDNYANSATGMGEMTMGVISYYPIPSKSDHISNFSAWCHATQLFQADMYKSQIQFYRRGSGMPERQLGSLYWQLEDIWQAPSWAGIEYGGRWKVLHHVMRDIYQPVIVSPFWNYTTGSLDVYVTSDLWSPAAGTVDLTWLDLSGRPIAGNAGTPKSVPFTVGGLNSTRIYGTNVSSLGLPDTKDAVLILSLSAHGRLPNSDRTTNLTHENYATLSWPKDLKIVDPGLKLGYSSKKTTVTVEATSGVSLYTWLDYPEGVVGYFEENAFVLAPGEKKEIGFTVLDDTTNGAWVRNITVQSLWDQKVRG
T3 sequence (P14410 whole entry): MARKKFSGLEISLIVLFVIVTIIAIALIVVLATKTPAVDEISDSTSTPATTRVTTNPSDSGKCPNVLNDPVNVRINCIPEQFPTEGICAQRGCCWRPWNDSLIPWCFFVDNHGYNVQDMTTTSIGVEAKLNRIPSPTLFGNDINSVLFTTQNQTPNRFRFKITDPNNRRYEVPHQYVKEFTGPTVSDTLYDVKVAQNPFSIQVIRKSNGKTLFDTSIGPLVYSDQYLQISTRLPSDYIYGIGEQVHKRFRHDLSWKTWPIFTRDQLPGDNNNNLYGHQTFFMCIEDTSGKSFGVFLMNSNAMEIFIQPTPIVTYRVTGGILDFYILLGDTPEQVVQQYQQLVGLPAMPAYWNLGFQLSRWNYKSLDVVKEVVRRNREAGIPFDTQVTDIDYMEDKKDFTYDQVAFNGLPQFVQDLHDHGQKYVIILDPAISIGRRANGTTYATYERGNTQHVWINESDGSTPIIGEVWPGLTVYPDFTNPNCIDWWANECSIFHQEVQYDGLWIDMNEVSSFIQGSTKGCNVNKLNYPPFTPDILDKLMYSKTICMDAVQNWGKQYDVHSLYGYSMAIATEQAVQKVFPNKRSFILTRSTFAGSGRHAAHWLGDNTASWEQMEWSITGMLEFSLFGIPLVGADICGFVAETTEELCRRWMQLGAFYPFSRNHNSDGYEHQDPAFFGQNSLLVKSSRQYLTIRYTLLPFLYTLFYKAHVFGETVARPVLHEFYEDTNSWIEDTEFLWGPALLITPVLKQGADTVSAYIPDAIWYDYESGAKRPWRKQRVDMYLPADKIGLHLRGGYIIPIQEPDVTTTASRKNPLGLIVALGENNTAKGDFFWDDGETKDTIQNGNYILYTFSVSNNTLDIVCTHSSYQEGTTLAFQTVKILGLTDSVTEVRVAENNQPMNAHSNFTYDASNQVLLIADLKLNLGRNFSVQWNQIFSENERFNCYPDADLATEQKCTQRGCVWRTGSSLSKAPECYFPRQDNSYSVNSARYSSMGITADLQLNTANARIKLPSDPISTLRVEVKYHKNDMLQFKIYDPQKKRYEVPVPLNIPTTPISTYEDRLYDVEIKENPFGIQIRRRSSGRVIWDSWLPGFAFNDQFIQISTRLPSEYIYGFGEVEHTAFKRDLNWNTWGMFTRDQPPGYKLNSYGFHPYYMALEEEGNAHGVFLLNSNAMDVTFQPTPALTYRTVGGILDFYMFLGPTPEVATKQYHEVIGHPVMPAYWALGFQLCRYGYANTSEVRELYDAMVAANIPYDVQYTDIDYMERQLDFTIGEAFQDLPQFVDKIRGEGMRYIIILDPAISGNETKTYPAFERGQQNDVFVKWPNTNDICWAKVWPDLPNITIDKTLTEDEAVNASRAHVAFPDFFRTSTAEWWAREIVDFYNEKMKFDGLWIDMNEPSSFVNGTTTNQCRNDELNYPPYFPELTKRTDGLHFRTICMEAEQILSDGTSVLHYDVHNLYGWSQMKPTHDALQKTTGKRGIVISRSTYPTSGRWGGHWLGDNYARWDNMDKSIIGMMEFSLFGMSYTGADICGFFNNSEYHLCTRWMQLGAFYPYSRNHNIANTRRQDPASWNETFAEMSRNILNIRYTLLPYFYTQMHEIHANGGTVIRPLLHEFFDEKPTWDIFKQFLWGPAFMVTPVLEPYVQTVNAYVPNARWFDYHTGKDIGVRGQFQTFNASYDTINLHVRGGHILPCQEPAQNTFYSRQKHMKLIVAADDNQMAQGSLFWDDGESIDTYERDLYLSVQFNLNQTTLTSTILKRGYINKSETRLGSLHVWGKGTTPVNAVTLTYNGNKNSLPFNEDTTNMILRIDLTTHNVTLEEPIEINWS

## OC[C@@H]1[C@@H](O)[C@H](O)[C@H]2[C@@H](O)CCN21 [australine, (1R, 2R, 3R, 7S, 7aR)-3-hydroxymethyl-1,2,7-trihydroxypyrrolizidine]
[1]
  Radioactivity, Lipid-linked oligosaccharides: 1077 cpm
[2]; 50 micro ug/ml, 60 min
  Radioactivity incorporated into protein: 16572 cpm
[2]; 50 micro ug/ml, 90 min
  Radioactivity incorporated into protein: 23341 cpm
[2]; 50 micro ug/ml, 120 min
  Radioactivity incorporated into protein: 33704 cpm
[2]; 50 to 500 micro g/ml, times up to 120 min
  effect on overall rate of protein synthesis: little effect
[2]; 250 micro ug/ml, 30 min
  Radioactivity incorporated into protein: 8064 cpm
[2]; 250 micro ug/ml, 60 min
  Radioactivity incorporated into protein: 13604 cpm
[2]; 250 micro ug/ml, 90 min
  Radioactivity incorporated into protein: 27776 cpm
[2]; 250 micro ug/ml, 120 min
  Radioactivity incorporated into protein: 36140 cpm
[2]; 500 micro ug/ml, 30 min
  Radioactivity incorporated into protein: 9124 cpm
[2]; 500 micro ug/ml, 60 min
  Radioactivity incorporated into protein: 15648 cpm
[2]; 500 micro ug/ml, 90 min
  Radioactivity incorporated into protein: 26060 cpm
[2]; 500 micro ug/ml, 120 min
  Radioactivity incorporated into protein: 32704 cpm
[3]
  inhibition of alpha-mannosidase: No significant inhibition
[3]; [19]
  effect on alpha-mannosidase: no apparent effect
[4]
  inhibition of beta-glucosidase: No significant inhibition
[4]; at 66 micro M
  inhibition of beta-glucosidase activity: less than 5%
[5]; Example 2, p-nitrophenyl-alpha-D-glucoside substrate, read-out: apparent Ki
  Ki: 5.8 µM
[5]; Lineweaver-Burk, 0.5 and 1 micro g/ml australine
  type of inhibition: competitive
[6]
  Ki: ~20 µM
[7]
  Ki: ~35 µM
[8]
  inhibition of beta-mannosidase: No significant inhibition
[8]; [19]
  effect on beta-mannosidase: no apparent effect
[9]
  Endo H-released proportion: 55%
[10]; [19]
  activity against glucosidase II: no activity
[11]
  inhibition of alpha-galactosidase: No significant inhibition
[11]; [19]
  effect on alpha-galactosidase: no apparent effect
[12]
  inhibition of HIV-1 replication: inhibited the growth of the virus, but this alkaloid was not as effective as an inhibitor as was castanospermine
[13]; 50-500 micro g/ml
  incorporation of [3H]mannose into lipid-linked oligosaccharide: appeared to be stimulated
[13]; 50 micro g/ml, 15 min
  Radioactivity, Lipid-linked monosaccharides: 97 cpm
  Radioactivity, Lipid-linked oligosaccharides: 1672 cpm
[13]; 50 micro g/ml, 30 min
  Radioactivity, Lipid-linked monosaccharides: 122 cpm
  Radioactivity, Lipid-linked oligosaccharides: 5021 cpm
[13]; 50 micro g/ml, 60 min
  Radioactivity, Lipid-linked monosaccharides: 229 cpm
[13]; 100 micro g/ml, 15 min
  Radioactivity, Lipid-linked monosaccharides: 101 cpm
  Radioactivity, Lipid-linked oligosaccharides: 2336 cpm
[13]; 100 micro g/ml, 30 min
  Radioactivity, Lipid-linked monosaccharides: 151 cpm
  Radioactivity, Lipid-linked oligosaccharides: 5335 cpm
[13]; 100 micro g/ml, 60 min
  Radioactivity, Lipid-linked monosaccharides: 244 cpm
  Radioactivity, Lipid-linked oligosaccharides: 1104 cpm
[13]; 250 micro g/ml, 15 min
  Radioactivity, Lipid-linked monosaccharides: 107 cpm
  Radioactivity, Lipid-linked oligosaccharides: 2073 cpm
[13]; 250 micro g/ml, 30 min
  Radioactivity, Lipid-linked monosaccharides: 115 cpm
  Radioactivity, Lipid-linked oligosaccharides: 5661 cpm
[13]; 250 micro g/ml, 60 min
  Radioactivity, Lipid-linked monosaccharides: 212 cpm
  Radioactivity, Lipid-linked oligosaccharides: 995 cpm
[13]; 500 micro g/ml, 15 min
  Radioactivity, Lipid-linked monosaccharides: 96 cpm
  Radioactivity, Lipid-linked oligosaccharides: 2957 cpm
[13]; 500 micro g/ml, 30 min
  Radioactivity, Lipid-linked monosaccharides: 178 cpm
  Radioactivity, Lipid-linked oligosaccharides: 6167 cpm
[13]; 500 micro g/ml, 60 min
  Radioactivity, Lipid-linked monosaccharides: 236 cpm
  Radioactivity, Lipid-linked oligosaccharides: 1108 cpm
[14]
  Ki: ~28 µM
[15]; 50 micro ug/ml, 30 min
  Radioactivity incorporated into protein: 9252 cpm
[15]; 100 micro ug/ml, 30 min
  Radioactivity incorporated into protein: 8304 cpm
[15]; 100 micro ug/ml, 60 min
  Radioactivity incorporated into protein: 1588 cpm
[15]; 100 micro ug/ml, 90 min
  Radioactivity incorporated into protein: 25636 cpm
[15]; 100 micro ug/ml, 120 min
  Radioactivity incorporated into protein: 32008 cpm
[16]
  inhibition of beta-galactosidase: No significant inhibition
[16]; [19]
  effect on beta-galactosidase: no apparent effect

## O[C@H]1[C@H](O)[C@@H](O)CN2CC[C@H](O)[C@H]12 [castanospermine, reference compound]
[4]
  inhibition of beta-glucosidase: inhibited
[4]; read-out: level which inhibited 50% of the beta-glucosidase activity
  IC50: 66 µM
[5]; Example 1, read-out: Ki
  Ki: 7.9 µM
[6]
  Ki: ~1 µM
[7]
  Ki: < 1 µM
[17]
  concentration producing the same degree of inhibition (increased proportion of Endo H-susceptible glycopeptides) as 500 micro g/ml australine: 10 micro g/ml
[10]
  inhibition of glucosidase II: inhibited by micromolar amounts
[14]
  Ki: < 1 µM

## OC[C@@H]1[C@@H]2[C@H](O)CCN2C[C@H]1O [rosmarinecine]
[18]
  glycosidase inhibitory activity: lack glycosidase inhibitory activity

## OC[C@H]1NCC[C@@H](O)[C@@H]1O [fagomine, 1,2,5-trideoxy-1,5-imino-D-arabino-hexitol, reference compound]
[3]
  inhibition of alpha-mannosidase: No significant glycosidase inhibitory activity
[4]
  inhibition of beta-glucosidase: No significant glycosidase inhibitory activity
[5]; commercially available enzyme
  glycosidase inhibitory activity against alpha-glucosidase: No significant glycosidase inhibitory activity
[8]
  inhibition of beta-mannosidase: No significant glycosidase inhibitory activity
[11]
  inhibition of alpha-galactosidase: No significant glycosidase inhibitory activity
[18]
  glycosidase inhibitory activity: no inhibitory activity
[16]
  inhibition of beta-galactosidase: No significant glycosidase inhibitory activity
